The record followed here is patent US9150543B2, “Substituted indolyl alkyl amino derivatives as inhibitors of histone deacetylase” (Janssen Pharmaceutica N. V., priority 2004, dated 2015).

Values after ≈ are worked out from the molar mass of the structure shown. Where two headings read alike, the source gives them in different places.

In data set [1] the target is histone deacetylase (HeLa nuclear extracts). The experiment in a line: In vitro assay for inhibition of histone deacetylase with [3H]-labelled substrate (C.1.a). The format is biochemical. To be noted: [3H]-acetylated histone H4 peptide substrate. As for the experimental part: As a substrate for measuring HDAC activity a synthetic peptide, i.e. the amino acids 14-21 of histone H4, was used. The substrate is biotinylated at the NH2-terminal part with a 6-aminohexanoic acid spacer, and is protected at the COOH-terminal part by an amide group and specifically [^3H]acetylated at lysine 16. The substrate, biotin-(6-aminohexanoic)Gly-Ala-([^3H]-acetyl-Lys-Arg-His-Arg-Lys-Val-NH2), was added in a buffer containing 25 mM Hepes, 1 M sucrose, 0.1 mg/ml BSA and 0.01% Triton X-100 at pH 7.4. After 30 min the deacetylation reaction was terminated by the addition of HCl and acetic acid. (final concentration 0.035 mM and 3.8 mM respectively). After stopping the reaction, the free ^3H-acetate was extracted with ethylacetate. After mixing and centrifugation, the radioactivity in an aliquot of the upper (organic) phase was counted in a β-counter.
For each experiment, controls (containing HeLa nuclear extract and DMSO without compound), a blank incubation (containing DMSO but no HeLa nuclear extract or compound) and samples (containing compound dissolved in DMSO and HeLa nuclear extract) were run in parallel. In first instance, compounds were tested at a concentration of 10^−5M. […] In each test the blank value was subtracted from both the control and the sample values. The control sample represented 100% of substrate deactylation. For each sample the radioactivity was expressed as a percentage of the mean value of the controls. […] Herein the effects of test compounds are expressed as pIC50 (the negative log value of the IC50-value) (see Table F-3).

Data set [2] relates to A2780 ovarian carcinoma cells. The experiment in a line: Antiproliferative activity on A2780 cells, MTT (C.2). The format is cell-based. To be noted: Homo sapiens, 96 h, four days of incubation, read-out: Cellular activity pIC50 C.2 (converted). Here is the method: All compounds tested were dissolved in DMSO and further dilutions were made in culture medium. Final DMSO concentrations never exceeded 0.1% (v/v) in cell proliferation assays. Controls contained A2780 cells and DMSO without compound and blanks contained DMSO but no cells. MTT was dissolved at 5 mg/ml in PBS. A glycine buffer comprised of 0.1 M glycine and 0.1 M NaCl buffered to pH 10.5 with NaOH (1N) was prepared (all reagents were from Merck).
The human A2780 ovarian carcinoma cells (a kind gift from Dr. T. C. Hamilton [Fox Chase Cancer Centre, Pennsylvania, USA]) were cultured in RPMI 1640 medium supplemented with 2 mM L-glutamine, 50 μg/ml gentamicin and 10% fetal calf serum. Cells were routinely kept as monolayer cultures at 37° C. in a humidified 5% CO2 atmosphere. Cells were passaged once a week using a trypsin/EDTA solution at a split ratio of 1:40. All media and supplements were obtained from Life Technologies. Cells were free of mycoplasma contamination as determined using the Gen-Probe Mycoplasma Tissue Culture kit (supplier: BioMerieux).
Cells were seeded in NUNC™ 96-well culture plates (Supplier: Life Technologies) and allowed to adhere to the plastic overnight. Densities used for plating were 1500 cells per well in a total volume of 200 μl medium. After cell adhesion to the plates, medium was changed and drugs and/or solvents were added to a final volume of 200 μl. Following four days of incubation, medium was replaced by 200 μl fresh medium and cell density and viability was assessed using an MTT-based assay. To each well, 25 μl MTT solution was added and the cells were further incubated for 2 hours at 37° C. The medium was then carefully aspirated and the blue MTT-formazan product was solubilized by addition of 25 μl glycine buffer followed by 100 μl of DMSO. […] Within an experiment, the results for each experimental condition are the mean of 3 replicate wells. For initial screening purposes, compounds were tested at a single fixed concentration of 10^−6 M. For active compounds, the experiments were repeated to establish full concentration-response curves. For each experiment, controls (containing no drug) and a blank incubation (containing no cells or drugs) were run in parallel. The blank value was subtracted from all control and sample values. For each sample, the mean value for cell growth (in absorbance units) was expressed as a percentage of the mean value for cell growth of the control. […] Herein the effects of test compounds are expressed as pIC50 (the negative log value of the IC50-value)(see Table F-3).

Assay in data set [3]: not given
The source holds these as a separate data set.

Data set [4] has as its target histone deacetylase (HeLa nuclear extracts). The data set is described as follows: In vitro assay for inhibition of histone deacetylase with fluorescent-labelled substrate (C.1.b). The format is biochemical. To be noted: Fluor de Lys substrate. As for the experimental part:
The HDAC Fluorescent Activity Assay/Drug Discovery Kit of Biomol (cat.No: AK-500-0001) was used. The HDAC Fluorescent Activity Assay is based on the Fluor de Lys (Fluorogenic Histone deAcetylase Lysyl) substrate and developer combination. The Fluor de Lys substrate, comprises an acetylated lysine side chain. Deacetylation of the substrate sensitizes the substrate so that, in the second step, treatment with the Fluor de Lys developer produces a fluorophore.
After 30 min, 1 volume of the developer was added. […] For each experiment, controls (containing HeLa nuclear extract and buffer), a blank incubation (containing buffer but no HeLa nuclear extract) and samples (containing compound dissolved in DMSO and further diluted in buffer and HeLa nuclear extract) were run in parallel. In first instance, compounds were tested at a concentration of 10^−5M. […] All sample were tested 4 times. In each test the blank value was subtracted from both the control and the sample values. The control sample represented 100% of substrate deactylation. For each sample the fluorescence was expressed as a percentage of the mean value of the controls. […] Herein the effects of test compounds are expressed as pIC50 (the negative log value of the IC50-value) (see Table F-3).

A short description of data set [5]: Solubility/stability at different pH's, chemiluminescent nitrogen detector (C.3.b). The format is physicochemical. To be noted: aqueous buffer; pH = 2.3. An excerpt: In a second method the solubility of a compound at different pH's can be measured with the use of a Chemiluminescent Nitrogen Detector (see example C.3.b).
The solubility of a compound, at different pH's, can also be measured with the use of a chemiluminescent nitrogen detector. (see Table F-3).

The nature of data set [6]: Metabolic stability with rat hepatocytes cell culture (C.5.b). The format is in vitro ADME. To be noted: 5 μM. As for the experimental part: Rat hepatocytes were isolated from male Sprague Dowley rats. The compounds were dissolved to a 5 mM stock solution in 100% DMSO and incubated at a final concentration of 5 μM for 0, 15, 30, 60 and 120 min with rat hepatocyte cell cultures (0.5 million viable cells/0.5 ml) using 24-well plates.
Samples were prepared for LC-MS by addition of two volumes of DMSO. The samples were thoroughly shaken and subsequently centrifuged at 900 g for 10 min (room temperature). All experiments were performed in triplicate. Of the resulting supernatant 50 μl was analysed by LC-MS.
For LC-MS, elution of samples was performed on a Hypersil BDS C18 column (50×4.6 mm, 5 μm, Thermohypersil, UK). The HPLC system comprised a Surveyor delivery system (Surveyor Inc., San Jose, US) equipped with a Surveyor autosampler device. Elution was with buffer A (10 mM ammoniumacetate (pH 6.9) in H2O/Acetonitrile (95:5)) and solvent B (acetonitrile) at a flow rate of 1.2 ml/min. The gradient employed was 0.5 min solvent A as start condition followed by increasing the organic phase concentration from 0% B till 95% B over 2 min in a linear fashion. This phase was kept stationary for a further 2 min and reduced again to 0% B within 0.5 min.
Total injection volume of samples was 50 μL. Column oven temperature was kept at 40° C. The LC flow was splitted for MS detection and 0.1 ml let into the source. An triple quadrupol mass spectrometer TSQ Quantum (Thermofinnigan, LaJolla, USA) mass spectrometer fitted with an ESI source was used for detection. Source voltage was set at 3800 volt, the capillary temperature at 300° C. The mass spectrometer was operated in positive ion mode in SIM adjusted to the mass of M+H with a scan width of 1 Da for quantification purposes. Instrument control, data acquisition and processing were performed using the Xcalibur software (ThermoFinnigan, San Jose, Calif., U.S.A). The metabolic stability of compounds in rat hepatocytes was expressed as in vitro half-lives.

Data set [7] relates to p21 promoter reporter A2780 tumour in nude mice. The experiment in a line: p21 promoter induction, in vivo method, tumour fluorescence (C.6.c). To be noted: 20-40 mpk orally or intravenously daily during 6 days, ranked inactive, weaker, identical or better than R306465. As for the experimental part:
Another method tests the capacity of compounds to induce p21 as the consequence of HDAC inhibition at the cellular level. […] The reporter gene is a fluorescent protein and the expression of the reporter gene is measured as the amount of fluorescent light emitted (see example C.6.b.). The last method is an in vivo method wherein mice are used for screening the pharmaceutical activity of a compound. The above described stably transformed tumour cells can be administered to mice in an amount sufficient to effect production of a tumour. After the tumour cells had sufficient time to form a tumour, a potentially active compound can be administered to the animals and the effect of said compound on the tumour cells is evaluated by measuring the expression of the reporter gene. Incubation with pharmaceutical active compounds will result in an increase of reporter gene expression compared to the control levels (see example C.6.c.)
A selected clone was injected subcutaneous (10^7 cells/200 μl) into the flank of nude mice and a calliper measurable tumour was obtained after 12 days. […] Tumours were evaluated for fluorescence by the in-house developed Automated Whole Body Imaging System (Fluorescent stereomicroscope type Olympus® SZX12 equipped with a GFP filter and coupled to a CCD camera type JAI® CV-M90 controlled by a software package based on the IMAQ Vision Software from National Instruments®). […]

On to `O=C(NO)c1cnc(N2CCC(NCc3c[nH]c4ccccc34)CC2)nc1` [Compound 7], for which the “Enzymatic activity pIC50 C.1.a.” value in data set [1] came to 8.5. Moreover, the IC50 in data set [2] is 0.794 µM.
On to `COc1cc(N)c(Cl)cc1C(=O)NC1CCN(CCCOc2ccc(F)cc2)CC1OC` (stereo not drawn) [Cisapride], for which the “% metabolism” value (human, 15 min, 5 μM) is recorded as 45%.
For the compound `Cn1cc(CNC2CCN(c3ncc(C(=O)NO)cn3)CC2)c2ccccc21` [Compound 6], the “Enzymatic activity pIC50 C.1.a.” value in data set [1] came to 8.2. Moreover, in data set [2], the IC50 was 0.501 µM.
`CCN(Cc1cn(CC)c2ccccc12)CC1CCN(c2ncc(C(=O)NO)cn2)CC1` [Compound 20] yielded a melting point in data set [3] of 90 °C. The “Enzymatic activity pIC50 C.1.b” value in data set [4] came to 9.5. In data set [5], this compound came in with a solubility of 2700 µg/mL (≈ 6.18 mM). In data set [2], the IC50 is 0.00794 µM.
Turning to `CN(CCc1c[nH]c2ccccc12)CC1CCN(c2ncc(C(=O)NO)cn2)CC1` [Compound 3], in data set [1], the “Enzymatic activity pIC50 C.1.a.” value is 8.5. Besides, the melting point in data set [3] was 121 °C. In addition, the IC50 in data set [2] is 0.2 µM.
As for `O=C(NO)c1cnc(N2CCN(S(=O)(=O)c3ccc4ccccc4c3)CC2)nc1` [Compound R306465, reference compound], in data set [6], the in vitro half-live came to 8 min.
In the case of `Cn1cc(CNCC2CCN(c3ncc(C(=O)NO)cn3)CC2)c2ccccc21` [Compound 1], the “tumour fluorescence ranking versus R306465” value in data set [7] is given as “better than R306465”. The same compound registered an in vitro half-live in data set [6] of 81 min.
Turning to `O=C(NO)c1cnc(N2CCC(CNCCc3c[nH]c4ccccc34)CC2)nc1` [Compound 5], in data set [1], the “Enzymatic activity pIC50 C.1.a.” value came to 8.6. This compound also showed a solubility in data set [5] of 2000 µg/mL (≈ 5.07 mM). This compound came in with an in vitro half-live in data set [6] of 60 min. Also, in data set [2], the IC50 was 0.316 µM.
Consider `CN(CCc1cn(C)c2ccccc12)CC1CCN(c2ncc(C(=O)NO)cn2)CC1` [Compound 21], for which the melting point in data set [3] worked out at 83 °C. For the same compound, the “Enzymatic activity pIC50 C.1.b” value in data set [4] was found to be 8.5. This compound also came in with a solubility in data set [5] of 1900 µg/mL (≈ 4.5 mM). Further, the IC50 in data set [2] is 0.0251 µM.
As to `CCCO` [propanol], the “% metabolism” value (15 min incubation with microsomes, compound 5 μM) worked out at 25%.

By melting point is commonly meant the temperature of the solid-liquid transition. The term solubility denotes the dissolved amount per volume that the medium holds. A lower solubility goes with a poorly soluble substance.
